Data as given in the supplement of paper PMC7017272.
± gives the standard deviation of the averaged measurements.

Experiments:
Conditions in all cases: treatment time: 3 days
[1] = system: UT-SCC-44; assay: relative IC50 (midpoint of the fitted curve; maximal inhibition may be below 50%); higher = less potent
Summary of the method: (§1)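 HPV-negative HNSCC cell lines were plated at 500 cells/well in 384-well plates, either on plastic, on wells coated with Matrigel or Myogel (500 µg/mL), or embedded in Matrigel or Myogel plus rat collagen I. Each compound was tested at five 10-fold concentrations over 3 days. Viability was measured by CellTiter-Glo 2.0 luminescence, and IC50, maximal inhibition and drug sensitivity score came from percent-inhibition dose–response curves fitted in the FIMM pipeline after normalisation to vehicle (0.1% DMSO) and cell-killing control wells.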

[2] = system: UT-SCC-14; assay: as above
Summary of the method: as §1

[3] = system: UT-SCC-73; assay: as above
Summary of the method: as §1

[4] = system: UT-SCC-42B; assay: as above
Summary of the method: as §1

[5] = system: UT-SCC-81; assay: as above
Summary of the method: as §1

[6] = system: UT-SCC-42A; assay: as above
Summary of the method: as §1

[7] = system: UT-SCC-44; assay: drug sensitivity score (DSS); higher = more sensitive; extreme values may be limits of the assay
Summary of the method: as §1

[8] = system: UT-SCC-106A; assay: as above
Summary of the method: as §1

[9] = system: UT-SCC-14; assay: as above
Summary of the method: as §1

[10] = system: UT-SCC-73; assay: as above
Summary of the method: as §1

[11] = system: UT-SCC-28; assay: as above
Summary of the method: as §1

[12] = system: UT-SCC-40; assay: as above
Summary of the method: as §1

[13] = system: UT-SCC-42B; assay: as above
Summary of the method: as §1

[14] = system: UT-SCC-24B; assay: as above
Summary of the method: as §1

[15] = system: UT-SCC-8; assay: as above
Summary of the method: as §1

[16] = system: UT-SCC-81; assay: as above
Summary of the method: as §1

[17] = system: UT-SCC-42A; assay: as above
Summary of the method: as §1

[18] = system: UT-SCC-24A; assay: relative IC50 (midpoint of the fitted curve; maximal inhibition may be below 50%); higher = less potent
Protocol: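 HNSCC cell lines (500 cells/well, 384-well) were cultured on plastic, on top of (2D) or embedded (3D) in Matrigel or human leiomyoma matrix Myogel (500 ug/mL; Myogel 3D mixed with rat collagen I). Cells were treated for 3 days with 5 ten-fold concentrations of each drug, and viability was read by CellTiter-Glo. Viability was normalised to DMSO (0% inhibition) and 100 uM benzethonium chloride (100% inhibition) controls and fitted with the FIMM DSRT pipeline to give IC50 (nM), maximal % inhibition and the drug sensitivity score (DSS). Suffixes _1/_2/_3 on drug names are replicates.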

[19] = culture condition: embedded in Myogel + collagen I
[20] = culture condition: on top of Matrigel
[21] = culture condition: on top of Myogel
[22] = culture condition: plastic 2D (no matrix)
[23] = culture condition: embedded in Matrigel

For `CO[C@H]1C[C@@H]2CC[C@@H](C)[C@@](O)(O2)C(=O)C(=O)N2CCCC[C@H]2C(=O)O[C@H]([C@H](C)C[C@@H]2CC[C@@H](OCCO)[C@H](OC)C2)CC(=O)[C@H](C)/C=C(\C)[C@@H](O)[C@@H](OC)C(=O)[C@H](C)C[C@H](C)/C=C/C=C/C=C/1C` [Everolimus], the “relative IC50” value [1, 19] was 6.3 nM, the “relative IC50” value [1, 20] was 0.89 nM and the “relative IC50” value [1, 21] was 1.1 nM. The “relative IC50” value [2, 20] was 6.41 nM, the “relative IC50” value [3, 20] was 1.92 nM and the “relative IC50” value [3, 22] was 7.59 nM. The “relative IC50” value [4, 22] was 20.8 nM, the “relative IC50” value [5, 19] was 2.53 nM and the “relative IC50” value [5, 20] was 6.53 nM. For the same molecule, the “relative IC50” value [5, 21] was 6.12 nM, the “relative IC50” value [5, 22] was 2.97 nM and the “relative IC50” value [6, 19] was 5.97 nM. For the same molecule, the “relative IC50” value [6, 20] was 15 nM, the “relative IC50” value [6, 21] was 10.5 nM and the drug sensitivity score [7, 23] was 2.47 ± 3.5 DSS. It also gave a drug sensitivity score [7, 19] of 5.4 ± 0.36 DSS, a drug sensitivity score [7, 20] of 6.83 ± 1.1 DSS and a drug sensitivity score [7, 21] of 7.67 ± 0.12 DSS. The drug sensitivity score [7, 22] was 5.07 ± 2 DSS, the drug sensitivity score [8, 23] was 1.27 ± 0.31 DSS and the drug sensitivity score [8, 19] was 2.77 ± 0.81 DSS. The drug sensitivity score [8, 20] was 1.53 ± 1.4 DSS, the drug sensitivity score [8, 21] was 1.33 ± 0.6 DSS and the drug sensitivity score [8, 22] was 7.3 ± 6 DSS. The drug sensitivity score [9, 23] was 8.37 ± 3.1 DSS, the drug sensitivity score [9, 19] was 10.2 ± 3.4 DSS and the drug sensitivity score [9, 20] was 5.67 ± 2.2 DSS. The drug sensitivity score [9, 21] was 7.77 ± 2.7 DSS, the drug sensitivity score [9, 22] was 7.63 ± 2.4 DSS and the drug sensitivity score [10, 23] was 2.37 ± 1.2 DSS. It also gave a drug sensitivity score [10, 19] of 8.4 ± 7.2 DSS, a drug sensitivity score [10, 20] of 3.93 ± 1.3 DSS and a drug sensitivity score [10, 21] of 4.27 ± 1.7 DSS. It also gave a drug sensitivity score [10, 22] of 3.23 ± 0.51 DSS, a drug sensitivity score [11, 23] of 3.57 ± 1.1 DSS and a drug sensitivity score [11, 19] of 3.37 ± 1.5 DSS. For the same molecule, the drug sensitivity score [11, 20] was 2.63 ± 1.4 DSS, the drug sensitivity score [11, 22] was 4.63 ± 1.6 DSS and the drug sensitivity score [12, 23] was 3.83 ± 6 DSS. For the same molecule, the drug sensitivity score [12, 19] was 3.13 ± 3.1 DSS, the drug sensitivity score [12, 20] was 2.1 ± 1.3 DSS and the drug sensitivity score [12, 21] was 1.8 ± 1.9 DSS. The drug sensitivity score [12, 22] was 1.73 ± 1.6 DSS, the drug sensitivity score [13, 23] was 0 DSS and the drug sensitivity score [13, 20] was 0.733 ± 0.67 DSS. The drug sensitivity score [13, 21] was 0.433 ± 0.38 DSS, the drug sensitivity score [13, 22] was 0.133 ± 0.12 DSS and the drug sensitivity score [14, 23] was 1.17 ± 1.5 DSS. It also gave a drug sensitivity score [14, 19] of 5.5 ± 2.1 DSS, a drug sensitivity score [14, 20] of 1.93 ± 1.7 DSS and a drug sensitivity score [14, 21] of 4.07 ± 1.6 DSS. It also gave a drug sensitivity score [14, 22] of 2.43 ± 1.4 DSS, a drug sensitivity score [15, 23] of 5.3 ± 2.3 DSS and a drug sensitivity score [15, 19] of 4.2 ± 6.5 DSS. It also gave a drug sensitivity score [15, 20] of 5.8 ± 6 DSS, a drug sensitivity score [15, 21] of 7.9 ± 6 DSS and a drug sensitivity score [15, 22] of 6.57 ± 3.2 DSS. For the same molecule, the drug sensitivity score [16, 23] was 7.87 ± 6.4 DSS, the drug sensitivity score [16, 19] was 9.2 ± 0.62 DSS and the drug sensitivity score [16, 20] was 5 ± 0.76 DSS. For the same molecule, the drug sensitivity score [16, 21] was 7.07 ± 1.8 DSS, the drug sensitivity score [16, 22] was 7.8 ± 0.44 DSS and the drug sensitivity score [17, 23] was 0.933 ± 1.1 DSS. For the same molecule, the drug sensitivity score [17, 19] was 3.87 ± 0.76 DSS, the drug sensitivity score [17, 20] was 2.6 ± 0.4 DSS and the drug sensitivity score [17, 21] was 3.27 ± 0.83 DSS. For the same molecule, the drug sensitivity score [17, 22] was 2.07 ± 0.91 DSS, the “relative IC50” value [18, 19] was 0.761 nM and the “relative IC50” value [18, 21] was 10.4 nM.
In the case of `COc1ncc(-c2ccc3nccc(-c4ccnnc4)c3c2)cc1NS(=O)(=O)c1ccc(F)cc1F` [Omipalisib], the “relative IC50” value [1, 19] is reported as 10.4 nM, the “relative IC50” value [1, 20] is reported as 5.9 nM and the “relative IC50” value [1, 21] is reported as 9.17 nM. For the same molecule, the “relative IC50” value [1, 22] was 14.4 nM, the “relative IC50” value [2, 23] was 5.67 nM and the “relative IC50” value [2, 20] was 8.29 nM. The “relative IC50” value [2, 21] was 11.2 nM, the “relative IC50” value [2, 22] was 6.77 nM and the “relative IC50” value [3, 23] was 6.73 nM. For the same molecule, the “relative IC50” value [3, 20] was 6.72 nM, the “relative IC50” value [3, 21] was 9.27 nM and the “relative IC50” value [3, 22] was 8.51 nM. For the same molecule, the “relative IC50” value [4, 23] was 6.88 nM, the “relative IC50” value [4, 20] was 19.3 nM and the “relative IC50” value [4, 21] was 36.6 nM. For the same molecule, the “relative IC50” value [4, 22] was 31.4 nM, the “relative IC50” value [5, 23] was 4 nM and the “relative IC50” value [5, 19] was 8.83 nM. The “relative IC50” value [5, 20] was 5.22 nM, the “relative IC50” value [5, 21] was 9.49 nM and the “relative IC50” value [5, 22] was 8.77 nM. For the same molecule, the “relative IC50” value [6, 23] was 15.6 nM, the “relative IC50” value [6, 19] was 16.6 nM and the “relative IC50” value [6, 20] was 13.2 nM. For the same molecule, the “relative IC50” value [6, 21] was 16.4 nM, the “relative IC50” value [6, 22] was 11.5 nM and the drug sensitivity score [7, 23] was 15.7 ± 2.2 DSS. It also gave a drug sensitivity score [7, 19] of 13.9 ± 1.6 DSS, a drug sensitivity score [7, 20] of 14 ± 1.9 DSS and a drug sensitivity score [7, 21] of 14.2 ± 2 DSS. The drug sensitivity score [7, 22] was 12.4 ± 0.21 DSS, the drug sensitivity score [8, 23] was 22.8 ± 0.99 DSS and the drug sensitivity score [8, 19] was 15.4 ± 0.89 DSS. The drug sensitivity score [8, 20] was 22.33 ± 0.15 DSS, the drug sensitivity score [8, 21] was 15 ± 1.2 DSS and the drug sensitivity score [8, 22] was 21.9 ± 0.46 DSS. It also gave a drug sensitivity score [9, 23] of 25.2 ± 1.2 DSS, a drug sensitivity score [9, 19] of 20.9 ± 3.1 DSS and a drug sensitivity score [9, 20] of 23.8 ± 0.57 DSS. The drug sensitivity score [9, 21] was 20.6 ± 0.78 DSS, the drug sensitivity score [9, 22] was 23.7 ± 2.6 DSS and the drug sensitivity score [10, 23] was 24.13 ± 0.21 DSS. The drug sensitivity score [10, 19] was 23.1 ± 3.8 DSS, the drug sensitivity score [10, 20] was 23.83 ± 0.15 DSS and the drug sensitivity score [10, 21] was 21.6 ± 0.47 DSS. It also gave a drug sensitivity score [10, 22] of 22.2 ± 0.8 DSS, a drug sensitivity score [11, 23] of 18.7 ± 3.2 DSS and a drug sensitivity score [11, 19] of 18.7 ± 1.8 DSS. The drug sensitivity score [11, 20] was 18.1 ± 1.6 DSS, the drug sensitivity score [11, 22] was 16.8 ± 0.21 DSS and the drug sensitivity score [12, 23] was 27.3 ± 0.47 DSS. The drug sensitivity score [12, 19] was 21.5 ± 0.32 DSS, the drug sensitivity score [12, 20] was 26.4 ± 0.84 DSS and the drug sensitivity score [12, 21] was 19.2 ± 1.1 DSS. For the same molecule, the drug sensitivity score [12, 22] was 20.6 ± 0.46 DSS, the drug sensitivity score [13, 23] was 24.7 ± 1.2 DSS and the drug sensitivity score [13, 20] was 18.3 ± 1.2 DSS. The drug sensitivity score [13, 21] was 14.1 ± 1.2 DSS, the drug sensitivity score [13, 22] was 15.2 ± 0.4 DSS and the drug sensitivity score [14, 23] was 22.3 ± 0.72 DSS. The drug sensitivity score [14, 19] was 22.9 ± 1.3 DSS, the drug sensitivity score [14, 20] was 21.7 ± 0.58 DSS and the drug sensitivity score [14, 21] was 19.4 ± 0.7 DSS. For the same molecule, the drug sensitivity score [14, 22] was 21.6 ± 0.49 DSS, the drug sensitivity score [15, 23] was 27.5 ± 1 DSS and the drug sensitivity score [15, 19] was 24.1 ± 4.4 DSS. It also gave a drug sensitivity score [15, 20] of 24.5 ± 0.1 DSS, a drug sensitivity score [15, 21] of 23.7 ± 0.44 DSS and a drug sensitivity score [15, 22] of 25 ± 0.83 DSS. The drug sensitivity score [16, 23] was 28.53 ± 0.15 DSS, the drug sensitivity score [16, 19] was 21.9 ± 1.9 DSS and the drug sensitivity score [16, 20] was 26.8 ± 0.32 DSS. For the same molecule, the drug sensitivity score [16, 21] was 21 ± 0.1 DSS, the drug sensitivity score [16, 22] was 22.6 ± 1.5 DSS and the drug sensitivity score [17, 23] was 20.8 ± 3.1 DSS. For the same molecule, the drug sensitivity score [17, 19] was 18.2 ± 0.85 DSS, the drug sensitivity score [17, 20] was 21.1 ± 2.2 DSS and the drug sensitivity score [17, 21] was 18.6 ± 0.96 DSS. The drug sensitivity score [17, 22] was 21.6 ± 2.3 DSS, the “relative IC50” value [18, 23] was 4.17 nM and the “relative IC50” value [18, 19] was 7 nM. The “relative IC50” value [18, 20] was 5.02 nM, the “relative IC50” value [18, 21] was 10.1 nM and the “relative IC50” value [18, 22] was 5.44 nM.
